*1 amine or outer side, *2 acyl side, *3 side chain or, on linkers, in order; H or OH if unused. Where a SMILES comes first, the peptide text is derived from it. Side-chain parts run from the residue outwards. [ ]: non-standard residue; d: D form. The star is where a group is joined. Ethylenediamine = C(CN[*:2])N[*:1]; Hyp = O=C(O)[CH]1C[CH](O)CN1; Phg = N[CH](C(=O)O)c1ccccc1; CO = O=C([*:1])[*:2]; Bn = c1ccc(C*)cc1
Tested on: Brown fat
Test: Microarray gene expression profiling (HG-U95A), brown fat
Assay type: in vivo, cynomolgus monkeys
Procedure: Origin of tissue and processing. Male and female cynomolgus monkeys received subcutaneously pasireotide (100 μg/animal/day) or the vehicle for 14 days. On day 15, all animals were sacrificed and tissues for RNA extraction were immediately snap-frozen and kept at −80° C. until processing.
RNA expression profiling was conducted by means of the HG-U95A gene expression probe array (Affymetrix; Santa Clara, Calif. USA), containing more than 12,600 probe sets interrogating primarily full-length human genes and also some control probe sets. The experiment was conducted according to the recommendations of the manufacturer. Briefly, total RNA was obtained by acid guanidinium thiocyanate-phenol-chloroform extraction (Trizol®, Invitrogen Life Technologies, San Diego, Calif. USA) from each frozen tissue section. The total RNA was then purified on an affinity resin (Rneasy®, Qiagen) and quantified. Double stranded cDNA was synthesized with a starting amount of approximately 5 μg full-length total RNA using the Superscript® Choice System (Invitrogen Life Technologies, Carlsbad, Calif. USA) in the presence of a T7-(dT)24 DNA oligonucleotide primer. Following synthesis, the cDNA was purified by phenol/chloroform/isoamyl alcohol extraction and ethanol precipitation. The purified cDNA was then transcribed in vitro using the BioArray® High Yield RNA Transcript Labeling Kit (ENZO, Farmingdale, N.Y. USA) in the presence of biotinylated ribonucleotides form biotin labelled cRNA. The labelled cRNA was then purified on an affinity resin (Rneasy®, Qiagen), quantified and fragmented. An amount of approximately 10 μg labelled cRNA was hybridized for 16 hours at 45° C. to an expression probe array. The array was then washed and stained twice with streptavidin-phycoerythrin (Molecular Probes,) using the GeneChip® Fluidics Workstation 400 (Affymetrix, Santa Clara, Calif. USA). The array was then scanned twice using a confocal laser scanner (GeneArray® Scanner, Agilent, Palo Alto, Calif. USA) resulting in one scanned image. This resulting “.dat-file” was processed using the MAS4 program (Affymetrix) into a “.cel-file”. The “.cel file” was captured and loaded into the Affymetrix GeneChip® Laboratory Information Management System (LIMS). The LIMS database is connected to a UNIX Sun Solaris server through a network filing system that allows for the average intensities for all probes cells (CEL file) to be downloaded into an Oracle database (NPGN). Raw data was converted to expression levels using a “target intensity” of 150. The data were evaluated for quality control and loaded in the GeneSpring® software 4.2.4 (Silicon Genetics, Calif. USA) for analysis.
On the human Affymetrix HGU95Av2 chip, probe sets for individual genes contain 20 oligonucleotide pairs, each composed of a “perfect match” 25-mer and a “mismatch” 25-mer differing from the “perfect” match oligonucleotide at a single base. After probe labelling, hybridization, and laser scanning, the expression level was estimated by averaging the differences in signal intensity measured by oligonucleotide pairs of a given probe (AvgDiff value). The fold changes and directions were calculated for selected genes, from the differences of the AvgDiff values between controls and treated.
To identify genes that were impacted by pasireotide, the dataset was initially filtered to exclude in a first wave of analysis, genes whose values were systematically in the lower expression ranges where the experimental noise is high (at least 80 in a number of experiments corresponding to the smallest number of replicas of any experimental point). In a second round of selection a threshold p-value of 0.05 (based on a t-test) identified differences between treated and control based on a two component error model (Global Error Model) and, whenever possible, with a stepdown correction for multi-hypothesis testing (Benjamini and Hochberg false discovery rate). […]

[1] = ↑ vs control, 100 μg/animal/day s.c., 14 days
[2] = ↓ vs control, 100 μg/animal/day s.c., 14 days

NCCCCC1NC(=O)C(Cc2c[nH]c3ccccc23)NC(=O)C(c2ccccc2)NC(=O)C2CC(OC(=O)NCCN)CN2C(=O)C(Cc2ccccc2)NC(=O)C(Cc2ccc(OCc3ccccc3)cc2)NC1=O (stereo not drawn) [Pasireotide, cyclo[4-(NH2—C2H4—NH—CO—O)Pro-Phg-DTrp-Lys-Tyr(4-Bzl)-Phe]] (cyclo(F[Hyp]([CO-Ethylenediamine])[Phg]WKY(Bn)); configuration not given here)
IGF-1 expression level, AvgDiff (range) (0.1 mg/animal/14day): 389 (315 to 449)
IGFBP 4 expression level, AvgDiff (range) (0.1 mg/animal/14day): 763 (429 to 1058)
IRS 2 expression level, AvgDiff (range) (0.1 mg/animal/14day): 146 (80 to 222)
SSTR3 expression level, AvgDiff (range) (0.1 mg/animal/14day): 194 (87 to 248)
Adrenergic, β-3-, receptor transcript fold change [1]: receptor ↑ x2.5
Apotosis-associated tyrosine kinase transcript fold change [1]: tyrosine kinase ↑ x3.5
CD2 antigen (cytoplasmic tail)-binding protein 2 transcript fold change [1]: binding protein 2 ↑ x2.5
CSF 3 receptor (granulocyte) transcript fold change [1]: (granulocyte) ↑ x3
Ca++ channel, voltage dependent, α 1H subunit transcript fold change [1]: ↑ x3
Cadherin 5, VE-cadherin (vascular epithelium) transcript fold change [1]: epithelium) ↑ x3
Cyclin T2 transcript fold change [1]: Cyclin T2 ↑ x2.5
Dopamine receptor D3 transcript fold change [1]: ↑ x2.5
Dual specificity PP MKP-5 transcript fold change [1]: MKP-5 ↑ x2.5
Endothelial differentiation, sphingolipid G-protein-coupled receptor, 5 transcript fold change [1]: ↑ x2.5
FSHR transcript fold change [1]: FSHR ↑ x2.5
Follistatin-like 3 glycoprotein transcript fold change [1]: glycoprotein ↑ x3
G protein-activated inwardly rectifying K+ channel transcript fold change [1]: channel ↑ x3.5
GLUR, metabotropic 1 transcript fold change [1]: ↑ x2
Guanine nucleotide binding protein (G protein), β polypeptide 3 transcript fold change [1]: ↑ x2.5
IFN induced transmembrane protein 1 transcript fold change [1]: 1 ↑ x2.5
IL 3 (CSF, multiple) transcript fold change [1]: ↑ x2
IL 5R, α transcript fold change [1]: IL 5R, α↑ x2.5
IL 7R precursor transcript fold change [1]: IL 7R precursor ↑ x2
IRS (insulin receptor substrate) 2 transcript fold change [1]: substrate) 2 ↑ x2.5
Oxytocin, prepro-(neurophysin I) transcript fold change [1]: (neurophysin I) ↑ x2.5
PI glycan, class L transcript fold change [1]: x3.5
PLC β 4 transcript fold change [1]: PLC β 4 ↑ x2
PP 5, catalytic subunit transcript fold change [1]: ↑ x2.5
T3 receptor transcript fold change [1]: T3 receptor ↑ x2
TGF β 3 transcript fold change [1]: TGF β 3 ↑ x2.5
TGF β-activated kinase-binding protein 1 transcript fold change [1]: ↑ x2.5
VGF nerve growth factor inducible transcript fold change [1]: factor inducible ↑ x2
Actin related protein 2/3 complex, subunit 1A (41 kD) transcript fold change [2]: (41 kD) ↓ x2.5
CSF 1 (macrophage) transcript fold change [2]: ↓ x2
Cadherin 13, H-cadherin (heart) transcript fold change [2]: cadherin (heart) ↓ x2
Cadherin F1B1 transcript fold change [2]: Cadherin F1B1 ↓ x4
Calcium/calmodulin-dependent protein kinase I transcript fold change [2]: kinase I ↓ x3.5
Capping protein (actin filament), gelsolin-like transcript fold change [2]: ↓ x2.5
Coagulation factor XIIIAI subunit precursor transcript fold change [2]: ↓ x5
EGF receptor pathway substrate 15 transcript fold change [2]: substrate 15 ↓ x2
Endothelial cell GF 1 (platelet derived) transcript fold change [2]: (platelet derived) ↓ x2
Extra spindle poles, S. cerevisiae, homologue of transcript fold change [2]: of ↓ x2.5
Fms-related tyrosine kinase 1 (VEGF/vascular permeability factor receptor) transcript fold change [2]: factor receptor) ↓ x4.5
G1 to S phase transition transcript fold change [2]: transition ↓ x1.5
G protein-coupled receptor 1 transcript fold change [2]: receptor 1 ↓ x2.5
G α inhibiting activity polypeptide 3 interacting protein transcript fold change [2]: protein ↓ x5
IFNγ-inducible protein 30 (IP30) transcript fold change [2]: 30 (IP30) ↓ x3.5
IGF-1 transcript fold change [2]: IGF-1 ↓ x1.5
IGF-binding protein 4 transcript fold change [2]: ↓ x2
Neuroblastoma apoptosis-related RNA binding protein transcript fold change [2]: binding protein ↓ x3
Neuroblastoma transcript fold change [2]: Neuroblastoma ↓ x2.5
PCNA transcript fold change [2]: PCNA ↓ x2.5
PI glycan, class F transcript fold change [2]: PI glycan, class F ↓ x2
PI-3-kinase. regulatory subunit, polypeptide 2 (p85 β) transcript fold change [2]: (p85 β) ↓ x3.5
PP 2, regulatory subunit B (B56), γ isoform transcript fold change [2]: isoform ↓ x1.5
Pentaxin-related gene, rapidly induced by IL-1 transcript fold change [2]: ↓ x7.5
THR interactor 10 transcript fold change [2]: ↓ x3
THR interactor 12 transcript fold change [2]: ↓ x1.5
TNF type 1 receptor associated protein transcript fold change [2]: associated protein ↓ x2

Source: patent publication US20070275382A1, “Biomarkers for the Efficacy of Somatostatin Analogue Treatment” (priority 2003, published 2007)
